Active and inactive are the calls of the source. The rule behind the calls is not given here.
Key:
[1] = system: MGC-803; assay: Antiproliferative activity against human MGC803 cells after 72 hrs by MTT assay; assay type: functional, cell-based; details: MGC-803, 72 h
[2] = system: HCT-116; assay: Cytotoxicity in human HCT116 cells pretreated with DFO followed by compound addition up to 5 uM measured after 72 hrs by MTT assay; assay type: functional, cell-based
[3] = system: HCT-116; assay: Effect on caspase-8 expression in human HCT116 cells up to 5 uM after 48 hrs by Western blot analysis; assay type: functional, cell-based
[4] = system: Mus musculus; assay: Toxicity in BALB/c nude mouse xenografted with human HCT116 cells assessed as abnormality in spleen at 10 to 20 mg/kg, iv administered once per day by hematoxylin and eosin staining-based microscopic method; assay type: organism-based; details: in vivo
[5] = system: HCT-116; assay: Cytotoxicity against human HCT116 cells pretreated with Mn2+ followed by compound addition up to 5 uM measured after 72 hrs by MTT assay; assay type: functional, cell-based
[6] = system: HCT-116; assay: Antiproliferative activity against human HCT116 cells after 72 hrs by MTT assay; assay type: functional, cell-based; details: HCT-116, 72 h
[7] = system: BEAS-2B; assay: Antiproliferative activity against human BEAS2B cells after 72 hrs by MTT assay; assay type: functional, cell-based
[8] = system: HCT-116; assay: Induction of apoptosis in human HCT116 cells assessed as early apoptotic cells at 1.25 uM after 72 hrs by Annexin V-FITC/propidium iodide staining-based flow cytometric analysis (reference value: 5.30%); assay type: functional
[9] = system: HCT-8; assay: Antiproliferative activity against human HCT8 cells after 72 hrs by MTT assay; assay type: functional, cell-based; details: HCT-8, 72 h
[10] = system: L02; assay: Antiproliferative activity against human LO2 cells after 72 hrs by MTT assay; assay type: cell-based; details: L02, 72 h
[11] = system: HCT-116; assay: Induction of apoptosis in human HCT116 cells assessed as cell shrinkage at 0.31 to 5 uM after 24 hrs by DAPI staining-based fluorescence microscopic method; assay type: functional
[12] = system: MCF7; assay: Antiproliferative activity against human MCF7 cells after 72 hrs by MTT assay; assay type: functional, cell-based; details: MCF7, 72 h
[13] = system: HCT-116; assay: Induction of apoptosis in human HCT116 cells after 72 hrs by Annexin V-FITC/propidium iodide staining-based flow cytometric analysis; assay type: functional, cell-based
[14] = system: HCT-116; assay: Induction of ferroptosis in human HCT116 cells assessed as downregulation of GPX4 expression after 48 hrs by Western blot analysis; assay type: functional, cell-based
[15] = molecular target: Cellular tumor antigen p53 (Homo sapiens) (UniProt P04637); assay: Activation of p53 in human HCT116 cells assessed as increase in cytochrome-c expression up to 5 uM after 48 hrs by Western blot analysis; assay type: cell-based
[16] = system: HCT-116; assay: Cytotoxicity against human HCT116 cells pretreated with Cu2+ followed by compound addition up to 5 uM measured after 72 hrs by MTT assay; assay type: functional, cell-based
[17] = system: HCT-116; assay: Cytotoxicity against human HCT116 cells pretreated with Ca2+ followed by compound addition up to 5 uM measured after 72 hrs by MTT assay; assay type: functional, cell-based
[18] = system: HCT-116; assay: Induction of apoptosis in human HCT116 cells assessed as viable cells at 0.31 uM after 72 hrs by Annexin V-FITC/propidium iodide staining-based flow cytometric analysis (reference value: 92.86%); assay type: functional; details: HCT-116, 72 h, read-out: Activity
[19] = molecular target: Cellular tumor antigen p53 (Homo sapiens) (UniProt P04637); assay: Activation of p53 in human HCT116 cells assessed as downregulation of Bcl2 expression up to 5 uM after 48 hrs by Western blot analysis; assay type: cell-based
[20] = Antiproliferative activity against human HBMEC cells after 72 hrs by MTT assay; assay type: cell-based
[21] = system: HCT-116; assay: Disruption of mitochondrial membrane potential in human HCT116 cells assessed as collapse of mitochondrial membrane potential at 1.25 uM after 72 hrs by JC1 staining-based flow cytometry method (reference value: […]); assay type: functional
[22] = system: HCT-116; assay: Induction of apoptosis in human HCT116 cells assessed as early apoptotic cells at 0.31 uM after 72 hrs by Annexin V-FITC/propidium iodide staining-based flow cytometric analysis (reference value: 5.30%); assay type: functional
[23] = system: HCT-116; assay: Antitumor activity against human HCT116 cells xenografted in BALB/c nude mouse assessed as decrease in tumor size at 20 mg/kg, iv administered once per day for 14 days and measured every 2 days; assay type: functional; design: scale not given: the % may be the effect or the level left
[24] = system: HCT-116; assay: Cytotoxicity against human HCT116 cells pretreated with K+ followed by compound addition up to 5 uM measured after 72 hrs by MTT assay; assay type: functional, cell-based
[25] = system: HCT-116; assay: Disruption of mitochondrial membrane potential in human HCT116 cells assessed as intact mitochondrial membrane at 5 uM after 72 hrs by JC1 staining-based flow cytometry method (reference value: 0.33%); assay type: functional
[26] = system: Mus musculus; assay: Toxicity in BALB/c nude mouse xenografted with human HCT116 cells assessed as change in body weight at 10 to 20 mg/kg, iv administered once per day for 14 days and measured every 2 days; assay type: organism-based; details: in vivo
[27] = Antiproliferative activity against taxol-resistant human HCT8/T cells after 72 hrs by MTT assay; assay type: functional; details: HCT-8, 72 h
[28] = system: HCT-116; assay: Disruption of mitochondrial membrane potential in human HCT116 cells assessed as collapse of mitochondrial membrane potential at 5 uM after 72 hrs by JC1 staining-based flow cytometry method (reference value: […]); assay type: functional
[29] = system: HCT-116; assay: Cytotoxicity in human HCT116 cells pretreated with Fe2+ followed by compound addition up to 5 uM measured after 72 hrs by MTT assay; assay type: functional, cell-based
[30] = system: PC-3; assay: Antiproliferative activity against p53 deficient human PC3 cells at 0.31 to 5 uM after 72 hrs by MTT assay; assay type: functional, cell-based
[31] = system: Bel-7402; assay: Antiproliferative activity against human Bel7402 cells after 72 hrs by MTT assay; assay type: functional, cell-based; details: Bel-7402, 72 h

Sequence of Cellular tumor antigen p53 (Homo sapiens) (P04637 whole entry, looked up): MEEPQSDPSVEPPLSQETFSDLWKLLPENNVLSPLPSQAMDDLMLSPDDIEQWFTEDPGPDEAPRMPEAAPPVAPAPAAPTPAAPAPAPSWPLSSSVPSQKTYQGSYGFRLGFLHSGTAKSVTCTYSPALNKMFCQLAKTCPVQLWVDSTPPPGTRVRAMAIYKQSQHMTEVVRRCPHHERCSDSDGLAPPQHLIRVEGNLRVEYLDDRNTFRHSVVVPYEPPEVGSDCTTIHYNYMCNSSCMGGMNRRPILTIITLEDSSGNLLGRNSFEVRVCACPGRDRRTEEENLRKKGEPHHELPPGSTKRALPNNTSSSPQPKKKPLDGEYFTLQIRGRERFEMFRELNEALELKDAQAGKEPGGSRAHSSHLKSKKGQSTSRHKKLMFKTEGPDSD

- IC50 [1]: 7.35 µM
- IC50 [6]: 5.19 µM
- IC50 [9]: 6.78 µM
- IC50 [12]: 10.5 µM
- Activity [15]: Active
- Activity [19]: Active
- IC50 [31]: 5.21 µM
SMILES: CC(=O)N[C@H]1[C@H](O[C@H]2CC[C@]3(C)[C@H]4CC=C5[C@@H]6CC(C)(C)CC[C@]6(C(=O)OCc6cn(-c7cccc(C(C)=O)c7)nn6)CC[C@@]5(C)[C@]4(C)CC[C@H]3C2(C)C)O[C@H](CO[C@@H]2OC[C@H](O)[C@H](O)[C@@H]2O)[C@@H](O)[C@@H]1O
- Activity [2]: inactive
- Activity [3]: inactive
- Activity [4]: Non-Toxic
- Activity [5]: Active
- IC50 [7]: 20.2 µM
- Activity [8]: 3.42%
- IC50 [10]: 33.2 µM
- Activity [11]: Active
- Activity [13]: Dose-dependent effect
- Activity [14]: Dose-dependent effect
- Activity [16]: Active
- Activity [17]: Active
- viability at 0.31 µM [18]: 78.9%
- IC50 [20]: 32.2 µM
- Activity [21]: 77.36%
- Activity [22]: 5.94%
- Activity [23]: 71.8%
- Activity [24]: Active
- Activity [25]: 40.13%
- Activity [26]: Non-Toxic
- IC50 [27]: 6.05 µM
- Activity [28]: 59.87%
- Activity [29]: Active
- Activity [30]: inactive

Reference: ChEMBL document CHEMBL4261580, “Novel antitumor compound optimized from natural saponin Albiziabioside A induced caspase-dependent apoptosis and ferroptosis as a p53 activator through the mitochondrial pathway” (Eur J Med Chem, 2018)
